In article PMC7284870, “Antimicrobial Peptides from Rat-Tailed Maggots of the Drone Fly Eristalis tenax Show Potent Activity against Multidrug-Resistant Gram-Negative Bacteria” (Microorganisms, 2020):
In brackets after ≈: the same amount, converted by molar mass. Several values for one entry are separate records, joined by “and”; a condition that tells them apart may be missing. Equal values may be shown once. Read-outs that look alike come from different tables or passages of the source. No end group written: not given here.

What was measured:
[1] = test system: P. aeruginosa clinical isolates (2); assay type: cell-based, Pseudomonas aeruginosa
Procedure: (§1) The strains that were used in this study (Table 2 and Table S1) were cultivated at 37 °C in cation-adjusted Mueller–Hinton broth (CAMB) in Erlenmeyer flasks, or on the same medium with agar in Petri dishes. Exceptionally, Mycobacterium smegmatis was cultivated at 37 °C in brain heart infusion (BHI) medium that was supplemented with 1% Tween-80 in Erlenmeyer flasks, or on the same medium lacking detergent but with agar in Petri dishes. Strains listed with Robert Koch Institute (RKI) strain numbers are clinical isolates from the RKI strain collection originating from hospitalized patients in Germany. The remaining strains originated from the Sanofi strain collection and they were originally purchased from the American Type Culture Collection or the German Collection of Microorganisms and Cell Cultures. Meropenem/colistin-resistant strains were maintained, as described above, with the appropriate antibiotic added at levels below the minimal inhibitory concentration (MIC).
The MIC values were determined in 384-well microtiter plates with an assay volume of 20 µL. Immediately before each assay, the cultures of test organisms (bacteria grown for 18 h, Candida albicans and M. smegmatis grown for 48 h) were diluted with the appropriate medium to a density of 1 × 10^6 cells/mL (C. albicans), 1 × 10^5 cells/mL (M. smegmatis) or 5 × 10^5 cells per mL (other species). […] We transferred 2-µL aliquots from this dilution series to new 384-well microtiter plates while using a CyBio-Well 384-channel automated pipettor (Analytic Jena, Jena, Germany) and added 18 µL of the diluted suspension of each test species using a Viafill reagent dispenser (Integra), thus reducing the final peptide concentration 10-fold to the range 1024–0.03125 µg/mL. […] The growth of M. smegmatis was measured using the BacTiter-Glo luminescence test system (Promega, Madison, WI, USA). The growth of the other species was determined by visual inspection of the microtiter plate and turbidimetry based on the optical density at 600 nm (OD600). […]

K. pneumoniae RKI 93/10 = test: microbe, parasite or virus in culture; assay type: cell-based, Klebsiella pneumoniae
Procedure: as §1
The MIC values were determined in 384-well microtiter plates with an assay volume of 20 µL. Immediately before each assay, the cultures of test organisms (bacteria grown for 18 h, Candida albicans and M. smegmatis grown for 48 h) were diluted with the appropriate medium to a density of 1 × 10^6 cells/mL (C. albicans), 1 × 10^5 cells/mL (M. smegmatis) or 5 × 10^5 cells per mL (other species). […] We transferred 2-µL aliquots from this dilution series to new 384-well microtiter plates while using a CyBio-Well 384-channel automated pipettor (Analytic Jena, Jena, Germany) and added 18 µL of the diluted suspension of each test species using a Viafill reagent dispenser (Integra), thus reducing the final peptide concentration 10-fold to the range 1024–0.03125 µg/mL. […] The growth of M. smegmatis was measured using the BacTiter-Glo luminescence test system (Promega, Madison, WI, USA). The growth of the other species was determined by visual inspection of the microtiter plate and turbidimetry based on the optical density at 600 nm (OD600). The MIC was defined as the peptide concentration at which no bacterial growth was observed. We supplemented the test medium with either 150 mM NaCl or 1.25 mM CaCl2 to represent monovalent and divalent cations to simulate physiological conditions.

[2] = test system: Klebsiella oxytoca RKI 52/07; assay type: cell-based
How it was run: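 Broth microdilution in cation-adjusted Mueller–Hinton broth at 37 °C, with 18 h cultures diluted to 5 × 10^5 cells/mL and final peptide concentrations of 1024–0.03125 µg/mL. Growth was scored visually and by OD600. MIC is the lowest concentration with no growth; medium was optionally supplemented with 150 mM NaCl or 1.25 mM CaCl2.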

[3] = Metabolic stability in human hepatocytes; assay type: in vitro ADME; conditions: cryopreserved human hepatocytes in suspension, 0.5 × 10^6 cells/mL, 1 µM peptide
Procedure: The metabolic stability of the E. tenax peptides was assessed by determining the intrinsic clearance while using cryopreserved human hepatocytes in suspension culture in a volume of 60 µL with a seeding densitiy of 0.5 × 10^6 hepatocytes/mL. The peptides were added at a concentration of 1 µM (4.14, 4.28, and 6.65 µg/mL for EtCec1-a, EtCec2-a, and EtDip, respectively). Scaled hepatic clearance for human was calculated based on a weight of 25.71 g liver/kg and a hepatocellularity of 99 × 10^6 cells/g liver.

Plasma stability = assay type: in vitro ADME; conditions: 37 °C, LC-MS, triplicate; for remaining at 24 h, 5 µM: after 24 h, read-out: peptide remaining in plasma; for hydrolysis in plasma: 5 µM
Procedure: EtCec1-a, EtCec2-a, and EtDip were dissolved as 1 mM stock solutions in sterile deionized water and then incubated in 500 µL plasma from different species (human, mouse and rat) to a final concentration of 5 µM (20.7, 21.4, and 33.3 µg/mL for EtCec1-a, EtCec2-a, and EtDip, respectively) at 37 °C. At different time points (0, 1, 4, and 24 h), 100-µL samples were transferred to 500 µL ethanol containing 0.5% (v/v) NH3, and the plasma proteins were precipitated by centrifugation for 20 min. at 1735× g. EtCec1-a, EtCec2-a, and EtDip (10 µL injection volume) were analyzed in triplicate by LC-MS, and their stability was evaluated by comparing samples of with plasma incubated timepoints (t1, t4, t24) to untreated samples (t0). The peptides were separated on an AERIS Peptide 3.6-µm XB-C18 50 × 2.1 mm column (Phenomenex, Torrance, CA, USA) with an ascending acetonitrile gradient in water (that was supplemented with 0.1% formic acid) at a flow rate of 500 µL/min.

[4] = target: human ERG (hERG) potassium channel (Homo sapiens, UniProt Q12809); test: cell-based
Sequence of human ERG (hERG) potassium channel (Q12809 whole entry): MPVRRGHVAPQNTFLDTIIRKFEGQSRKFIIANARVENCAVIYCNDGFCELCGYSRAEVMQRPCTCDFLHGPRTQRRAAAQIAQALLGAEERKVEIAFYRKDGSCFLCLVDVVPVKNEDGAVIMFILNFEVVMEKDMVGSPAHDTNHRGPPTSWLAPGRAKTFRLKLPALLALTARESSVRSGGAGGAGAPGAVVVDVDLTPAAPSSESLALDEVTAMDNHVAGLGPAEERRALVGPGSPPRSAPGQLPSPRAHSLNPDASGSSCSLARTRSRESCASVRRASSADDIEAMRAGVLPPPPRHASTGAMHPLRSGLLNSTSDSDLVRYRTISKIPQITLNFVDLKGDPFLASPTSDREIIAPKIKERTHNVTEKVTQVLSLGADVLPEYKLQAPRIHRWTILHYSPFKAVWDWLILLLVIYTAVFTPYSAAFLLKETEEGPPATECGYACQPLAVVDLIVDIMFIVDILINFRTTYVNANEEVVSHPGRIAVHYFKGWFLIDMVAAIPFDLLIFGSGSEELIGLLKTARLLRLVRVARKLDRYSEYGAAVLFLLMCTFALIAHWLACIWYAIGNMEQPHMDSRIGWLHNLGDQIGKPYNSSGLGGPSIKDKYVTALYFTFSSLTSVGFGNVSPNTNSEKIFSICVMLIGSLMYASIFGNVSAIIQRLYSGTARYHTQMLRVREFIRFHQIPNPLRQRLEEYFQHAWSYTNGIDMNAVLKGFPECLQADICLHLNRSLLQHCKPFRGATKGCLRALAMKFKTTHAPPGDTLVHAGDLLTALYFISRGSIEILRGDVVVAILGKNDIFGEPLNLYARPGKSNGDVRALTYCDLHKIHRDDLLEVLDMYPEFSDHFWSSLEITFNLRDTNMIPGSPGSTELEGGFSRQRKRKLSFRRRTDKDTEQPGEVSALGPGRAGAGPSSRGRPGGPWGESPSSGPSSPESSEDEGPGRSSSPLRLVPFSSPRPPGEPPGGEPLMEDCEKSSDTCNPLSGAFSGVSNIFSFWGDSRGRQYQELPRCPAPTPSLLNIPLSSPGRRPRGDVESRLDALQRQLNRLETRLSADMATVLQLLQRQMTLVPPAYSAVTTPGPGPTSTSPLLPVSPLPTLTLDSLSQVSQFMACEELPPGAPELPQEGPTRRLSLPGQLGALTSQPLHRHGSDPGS
Procedure: The interaction of the peptides with the human ERG (hERG) potassium channel was analyzed using the automated patch-clamp method. Chinese hamster ovary (CHO) hERG Duo cells constitutively expressing hERG (B’SYS) were diluted to 8 × 10^6 cells/mL in Ex-Cell CHO medium (Sigma–Aldrich) containing 25 mM HEPES, 100 U/mL penicillin-streptomycin, and 0.004% soybean trypsin inhibitor. The peptides were diluted from a stock concentration of 10 mM in DMSO to final concentrations of 0.12, 0.37, 1.1, 3.3, 10, and 30 μM (0.5–124 µg/mL for […], 0.51–128 µg/mL for EtCec2-a, 0.49–122 µg/mL for EtCec3-a, 0.8–200 µg/mL for EtDip) in extracellular medium (150 mM NaCl, 4 mM KCl, 2 mM CaCl2, 1 mM MgCl2, 10 mM HEPES, 10 mM glucose) containing 0.06% Pluronic F-68 and 0.3% residual DMSO. The response of hERG to each peptide was assessed while using a QPatch HTX station and QPlates (Sophion/Biolin Scientific, Ballerup, Denmark) by recording the tail current following channel repolarization. Half-maximal inhibitory concentrations (IC50) were determined from a series of six concentrations applied to the cells in ascending order. Terfenadine citrate was used as a positive control and extracellular medium as a negative control.

[5] = test system: Acinetobacter baumannii ATCC 19606; assay type: cell-based
How it was run: (§2)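 Broth microdilution in cation-adjusted Mueller–Hinton broth, inoculum 5 × 10^5 cells/mL from 18 h cultures; final peptide range 1024–0.03125 µg/mL, medium supplemented with 150 mM NaCl or 1.25 mM CaCl2. Growth scored visually and by OD600; MIC = lowest concentration without growth.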

[6] = test system: Klebsiella pneumoniae DSM 30104; assay type: cell-based
How it was run: as §2

[7] = test system: Staphylococcus aureus ATCC 25923; assay type: cell-based
How it was run: as §2

Canida albicans FH2173 = assay type: cell-based, Candida albicans; conditions: CAMB, 24 h, 37 °C, n = 4
How it was run: as §2

[8] = CAMB + 0.075 µg/mL colistin (Col), n=3
[9] = CAMB adjusted to 150 mM NaCl, n=3

| Compound | half-life [3] | half-life at 1 µM [3] [h] | remaining at 24 h, 5 µM (Plasma stability; human plasma) [%] | hydrolysis in plasma (Plasma stability; mouse plasma, within 24 h) | hydrolysis in plasma (Plasma stability; rat plasma, within 24 h) | IC50 [4] [µM] | MIC (Canida albicans FH2173) [µg/mL] | MIC (K. pneumoniae RKI 93/10; [8]) [µg/mL] | MIC [5, 8] [µg/mL] | MIC ([5]; CAMB, 18 h, 37 °C, n = 4) [µg/mL] | MIC [6, 8] [µg/mL] | MIC ([6]; CAMB, 18 h, 37 °C, n = 4) [µg/mL] | MIC ([7]; CAMB, 18 h, 37 °C, n = 4) [µg/mL] | MIC [2, 8] [µg/mL] | MIC ([2]; Table 5, CAMB, n=3) [µg/mL] | other results |
| --- | --- | --- | --- | --- | --- | --- | --- | --- | --- | --- | --- | --- | --- | --- | --- | --- |
| C[C@@H](O)[C@H]1C(=O)N2C(C(=O)O)=C(S[C@@H]3CN[C@H](C(=O)N(C)C)C3)[C@H](C)[C@H]12 [MEM, meropenem] |  |  |  |  |  |  |  |  |  |  |  |  |  |  |  | MIC ([1]; Table S1, RKI 93/12): 16 µg/mL (≈ 41.7 µM); MIC ([1]; Table S1, RKI 628/16): 8 µg/mL (≈ 20.9 µM); MIC (K. pneumoniae RKI 93/10; Klebsiella pneumoniae, RKI93/10): 64 µg/mL (≈ 167 µM); MIC ([2]; Table S1, RKI 52/07): 32 µg/mL (≈ 83.4 µM) |
| GFLKKIGKKLEGAVQRTRDATIQTIAVAQAAANVAATAKQ-NH2 [EtCec1-NH2] | > 3.33 h | 7.13 | 48 | completely hydrolyzed | completely hydrolyzed | > 30 |  |  |  |  |  |  |  |  |  | MIC ([1]; clinical isolates (2, 18 h)): 128 µg/mL; MIC (K. pneumoniae RKI 93/10; RKI 93/10, 18 h): 8 µg/mL; MIC ([5]; ATCC 19606, 18 h): 8 µg/mL; MIC ([6]; DSM 30104, 18 h): 4 µg/mL; MIC ([7]; ATCC 25923, 18 h): >1024 µg/mL |
| GWLRDFGKRIERTGQNIRDATIQTIGIAQEAANVAATLK-NH2 [EtCec2-NH2] | > 3.33 h | 3.43 | 22 | completely hydrolyzed | completely hydrolyzed | > 29.9 | >1024 | 8 | 8 | 8 | 2 | 16 | >1024 | 2 | 32 | MIC (K. pneumoniae RKI 93/10; [9]): 256 µg/mL; MIC (K. pneumoniae RKI 93/10; Table 4, CAMB, n=3): 64 µg/mL; MIC [5, 9]: 8 µg/mL; MIC ([5]; Table 4, CAMB, n=3): 8 µg/mL; MIC [6, 9]: 32 µg/mL; MIC ([6]; Table 4, CAMB, n=3): 16 µg/mL |
| QFNMQGGGSPRQGFDVNANARFPIWQSQNARNSVHGTASYAQHLGGPYGNSRPNFGGGLQFT [EtDip, diptericin-like peptide of Eristalis tenax] | 5.75 h and > 3.33 h |  |  |  |  |  | >1024 | >1024 | >1024 | >1024 | 4 | >1024 | >1024 | 4 | >1024 | hydrolysis in plasma (Plasma stability; human plasma, after 1 h): ≥ 83%; hydrolysis in plasma (Plasma stability; mouse plasma, after 1 h): ≥ 83%; hydrolysis in plasma (Plasma stability; rat plasma, after 1 h): ≥ 83%; IC50 hERG ([4]; CHO hERG Duo cells, QPatch, tail current, six concentrations): > 200 µg/mL; MIC (K. pneumoniae RKI 93/10; Table 5, CAMB, n=3): >1024 µg/mL; MIC ([5]; Table 5, CAMB, n=3): >1024 µg/mL; MIC ([6]; Table 5, CAMB, n=3): >1024 µg/mL |
